Assay results taken from PMC6832651, “Design, Synthesis and Investigation of the Potential Anti-Inflammatory Activity of 7-O-Amide Hesperetin Derivatives” (Molecules, 2019).

How the values were obtained:
[1] = system: LPS-induced NO production in RAW264.7 cells; assay: Inhibition of LPS-induced NO production (Griess reagent); assay type: cell-based, mouse; conditions: for IC50: Mus musculus, 1 h pretreatment, then LPS 24 h, mean ± SD (n = 3); for LPS-induced NO release: LPS-stimulated, result in words
Description: NO is an important inflammatory mediator and is overproduced and secreted out of mouse macrophages in response to bacterial lipopolysaccharide. To evaluate the anti-inflammatory activity of hesperetin derivatives, the secretion level of NO was detected in the medium of RAW264.7 cells after LPS stimulated with Griess reagent. Before the cells were treated with LPS (1 μg/mL) for 24 h, pretreatment with the compounds for 1 hour. […] All hesperetin derivatives could decrease the release of NO induced by LPS. […] While extended the length of the amide side chain and the inhibitory activities increased (4d > 4c > 4a; 4e > 4b). […] On the other hand, the cavity was medium-sized, large enough to accommodate cyclopentyl and propyl groups, but not enough to accommodate cyclohexyl and butyl ones (4a < 4b < 4d > 4f; 4k > 4l).
Nitrite levels were determined using the Griess method for NO has a short half-life and is oxidized to stable nitrite. RAW 264.7 cells were plated at a density of 2 × 10^5 per well in a 24-well culture plate and incubated in a 37 °C humidified incubator (5% CO2). After overnight Cultured, discarded the supernatant, added pre-configured compounds of different concentrations to the 24-well plate, and added the same one-thousandth of the DMSO solvent as the control to the experimental group for 1 h. Then LPS was added to experimental and model groups at a concentration of […] for 24 h compared to vehicle control. Following treatment, media was collected and centrifuged at 2000 rpm for 5 min to remove cellular debris. The medium from treated cells was removed and placed into a 96-well plate (50 µL per well) and was measured in culture supernatant using Griess reagent at 540 nm. The IC50 values of compounds were calculated by SPSS23.

[2] = system: LPS-induced NO production in RAW264.7 cells; assay: as above; assay type: cell-based; conditions: Mus musculus, 10 μM compound, 1 h pretreatment, then LPS (1 μg/mL) 24 h, mean ± SD (n = 3)
TNF-α = TNF-α level in medium of LPS-induced RAW264.7 cells (ELISA); assay type: cell-based, mouse; conditions: 10 μM compound (Figure 2A-C)
Text: (§1) When inflammation occurs, LPS-activated macrophages produce a variety of inflammatory cytokines, including TNF-α, interleukins (ILs), and nitric oxide (NO), which show a host shielding effect and also accelerate the occurrence of the inflammatory response during inflammatory situations. To evaluate the anti-inflammatory activity of hesperetin derivatives, the levels of TNF-α, IL-6 and IL-1β in the medium of LPS-induced macrophage cells were detected by enzyme linked immunosorbent assay (ELISA). […] Later, we will select one of them as lead compound and modify the structure at the 3’-OH, 5-OH and 4-carbonyl positions. […] Compounds 4d (MW = 401) and 4k (MW = 427) have similar structures and should have the same mechanism. Therefore, compound 4d with lower molecular weight was selected to further explore the mechanism(s) of the anti-inflammatory effect.
(§2) RAW264.7 cells (2 × 10^5 cells/well) were cultured in 24-well plate and pretreated with 10 μM of compounds for 1 h. And then stimulated with LPS, […], for 24 h. The cell culture supernatant were collected and the levels of TNF-α, IL-6 and IL-1β were determined using the ELISA kit (Elabscience, Wuhan, China). The optical density (OD) was measured at 540 nm. The results were analyzed using Origin Pro 8 (OriginLab, Northampton, MA, USA).

IL-6 = IL-6 level in medium of LPS-induced RAW264.7 cells (ELISA); assay type: cell-based, mouse; conditions: 10 μM compound (Figure 2A-C)
Text: as §1, §2

IL-1β = IL-1β level in medium of LPS-induced RAW264.7 cells (ELISA); assay type: cell-based, mouse; conditions: 10 μM compound (Figure 2A-C)
Text: as §1, §2

Compound	IC50 [1]	inhibition at 10 µM [2]	melting point	LPS-induced NO release [1]	inhibitory effect on TNF-α production (TNF-α)	inhibitory effect on IL-6 production (IL-6)	inhibitory effect on IL-1β production (IL-1β)
Cc1ccc(-c2cc(C(F)(F)F)nn2-c2ccc(S(N)(=O)=O)cc2)cc1 [Cel, celecoxib, reference compound]	26.4 ± 0.46 µM	14.5 ± 3.61%	–	–	–	–	–
CNC(=O)COc1cc(O)c2c(c1)O[C@H](c1ccc(OC)c(O)c1)CC2=O [Compound 4a, 7-O-(2-(Methylamino)-2-oxoethyl)hesperetin]	38.5 ± 2 µM	16 ± 0.06%	179.8 to 182.7 °C	–	–	–	–
CCNC(=O)COc1cc(O)c2c(c1)O[C@H](c1ccc(OC)c(O)c1)CC2=O [Compound 4b, 7-O-(2-(Ethylamino)-2-oxoethyl)hesperetin]	29.9 ± 3.4 µM	21.5 ± 1.29%	171.2 to 173.6 °C	–	–	–	–
COc1ccc([C@@H]2CC(=O)c3c(O)cc(OCC(=O)N(C)C)cc3O2)cc1O [Compound 4c, 7-O-(2-(Dimethylamino)-2-oxoethyl)hesperetin]	32.5 ± 2.46 µM	13.5 ± 1.63%	164.1 to 165.8 °C	–	–	–	–
COc1ccc([C@@H]2CC(=O)c3c(O)cc(OCC(=O)NC(C)C)cc3O2)cc1O [Compound 4e, 7-O-(2-(Isopropylamino)-2-oxoethyl)hesperetin]	26.1 ± 1.21 µM	27.1 ± 5.88%	157.6 to 160.4 °C	significantly alleviated the increase of LPS-induced NO release	greater inhibitory effects than indomethacin (Ind) and celecoxib (Cel)	greater inhibitory effects than indomethacin (Ind) and celecoxib (Cel)	greater inhibitory effects than indomethacin (Ind) and celecoxib (Cel)
CCCCNC(=O)COc1cc(O)c2c(c1)O[C@H](c1ccc(OC)c(O)c1)CC2=O [Compound 4f, 7-O-(2-(Butylamino)-2-oxoethyl)hesperetin]	29.7 ± 3.06 µM	18 ± 0.82%	136.9 to 138.4 °C	–	–	–	–
COc1ccc([C@@H]2CC(=O)c3c(O)cc(OCC(=O)NCC(C)C)cc3O2)cc1O [Compound 4g, 7-O-(2-(Isobutylamino)-2-oxoethyl)hesperetin]	24.59 ± 0.22 µM	23.5 ± 0.74%	136.9 to 139.4 °C	significantly alleviated the increase of LPS-induced NO release	–	–	–
COc1ccc([C@@H]2CC(=O)c3c(O)cc(OCC(=O)NC(C)(C)C)cc3O2)cc1O [Compound 4h, 7-O-(2-(tert-Butylamino)-2-oxoethyl)hesperetin]	42 ± 6.15 µM	17.5 ± 1.33%	140.5 to 142.4 °C	–	–	–	–
CCN(CC)C(=O)COc1cc(O)c2c(c1)O[C@H](c1ccc(OC)c(O)c1)CC2=O [Compound 4i, 7-O-(2-(Diethylamino)-2-oxoethyl)hesperetin]	30.5 ± 1.66 µM	17.5 ± 2.33%	146.3 to 147.8 °C	–	–	–	–
COc1ccc([C@@H]2CC(=O)c3c(O)cc(OCC(=O)NC4CC4)cc3O2)cc1O [Compound 4j, 7-O-(2-(Cyclopropylamino)-2-oxoethyl)hesperetin]	41.7 ± 2.79 µM	9.57 ± 5.53%	190.8 to 193.1 °C	–	–	–	–
COc1ccc([C@@H]2CC(=O)c3c(O)cc(OCC(=O)NC4CCCC4)cc3O2)cc1O [Compound 4k, 7-O-(2-(Cyclopentylamino)-2-oxoethyl)hesperetin]	16.6 ± 0.85 µM	40.9 ± 0.64%	187.5 to 190 °C	significantly alleviated the increase of LPS-induced NO release	greater inhibitory effects than indomethacin (Ind) and celecoxib (Cel)	greater inhibitory effects than indomethacin (Ind) and celecoxib (Cel)	greater inhibitory effects than indomethacin (Ind) and celecoxib (Cel)
COc1ccc([C@@H]2CC(=O)c3c(O)cc(OCC(=O)NC4CCCCC4)cc3O2)cc1O [Compound 4l, 7-O-(2-(Cyclohexylamino)-2-oxoethyl)hesperetin]	33.3 ± 3.3 µM	20.3 ± 2%	181.9 to 184.1 °C	–	–	–	–
COc1ccc([C@@H]2CC(=O)c3c(O)cc(OCC(=O)N4CCCC4)cc3O2)cc1O [Compound 5a, 7-O-(2-(Pyrrolidin-1-yl)-2-oxoethyl)hesperetin]	36.2 ± 5.83 µM	18.9 ± 4.02%	127.1 to 130.5 °C	–	–	–	–
COc1ccc([C@@H]2CC(=O)c3c(O)cc(OCC(=O)N4CCSC4)cc3O2)cc1O [Compound 5b, 7-O-(2-(Thiazolidin-3-yl)-2-oxoethyl)hesperetin]	30 ± 0.43 µM	22.7 ± 5.71%	152.4 to 154.7 °C	–	–	–	–
COc1ccc([C@@H]2CC(=O)c3c(O)cc(OCC(=O)N4CCCCC4)cc3O2)cc1O [Compound 6a, 7-O-(2-(piperidin-1-yl)-2-oxoethyl)hesperetin]	23.4 ± 1.64 µM	30.2 ± 4.67%	165.4 to 167.9 °C	significantly alleviated the increase of LPS-induced NO release	–	–	–
COc1ccc([C@@H]2CC(=O)c3c(O)cc(OCC(=O)N4CCCC(CO)C4)cc3O2)cc1O (stereo partly shown) [Compound 6b, 7-O-(2-(3-(Hydroxymethyl)piperidin-1-yl)-2-oxoethyl)hesperetin]	31.1 ± 2.93 µM	19.3 ± 1.94%	168.6 to 171.8 °C	–	–	–	–
COc1ccc([C@@H]2CC(=O)c3c(O)cc(OCC(=O)N4CCCCC4CO)cc3O2)cc1O (stereo partly shown) [Compound 6c, 7-O-(2-(2-(Hydroxymethyl)piperidin-1-yl)-2-oxoethyl)hesperetin]	40.6 ± 5.56 µM	9.1 ± 3.67%	123.2 to 125.8 °C	–	–	–	–
COc1ccc([C@@H]2CC(=O)c3c(O)cc(OCC(=O)N4CCN(C)CC4)cc3O2)cc1O [Compound 6d, 7-O-(2-(4-Methylpiperazin-1-yl)-2-oxoethyl)hesperetin]	–	–	167.3 to 170.1 °C	–	–	–	–
CCN1CCN(C(=O)COc2cc(O)c3c(c2)O[C@H](c2ccc(OC)c(O)c2)CC3=O)CC1 [Compound 6e, 7-O-(2-(4-Ethylpiperazin-1-yl)-2-oxoethyl)hesperetin]	–	–	160.7 to 162.9 °C	–	–	–	–
COc1ccc([C@@H]2CC(=O)c3c(O)cc(OCC(=O)N4CCOCC4)cc3O2)cc1O [Compound 6f, 7-O-(2-Morpholino-2-oxoethyl)hesperetin]	32.6 ± 1.51 µM	21 ± 0.31%	188.7 to 189.3 °C	–	–	–	–
COc1ccc([C@@H]2CC(=O)c3c(O)cc(OCC(=O)NCCO)cc3O2)cc1O [Compound 7a, 7-O-(2-((2-Hydroxyethyl)amino)-2-oxoethyl)hesperetin]	28.4 ± 5.33 µM	15 ± 1.99%	183.8 to 185.7 °C	–	–	–	–
COc1ccc([C@@H]2CC(=O)c3c(O)cc(OCC(=O)NCCN(C)C)cc3O2)cc1O [Compound 7b, 7-O-(2-((2-(Dimethylamino)ethyl)amino)-2-oxoethyl)hesperetin]	92.5 ± 33.7 µM	12.4 ± 0.67%	137.1 to 139.4 °C	–	–	–	–
COc1ccc([C@@H]2CC(=O)c3c(O)cc(OCC(=O)NCCN4CCOCC4)cc3O2)cc1O [Compound 7c, 7-O-(2-((2-Mmorpholinoethyl)amino)-2-oxoethyl) hesperetin]	42.4 ± 2.06 µM	18.4 ± 4.55%	160.7 to 162.9 °C	–	–	–	–
COc1ccc2c(c1)c(CC(=O)O)c(C)n2C(=O)c1ccc(Cl)cc1 [Ind, indomethacin, reference compound]	35.3 ± 8.07 µM	12.9 ± 3.09%	–	–	–	–	–
